Results: patent publication US11241450B2, “Uridine diphosphate derivatives, prodrugs, compositions and uses thereof” (TUFTS UNIVERSITY, priority 2012, dated 2022)
Structures can show the parent of a compound that is named as a salt. Where two headings read alike, the source gives them in different places.

Experiments:
[1] = test system: amyloid plaques in PSAPP mice; assay: Postmortem immunohistochemistry of plaque load in cortex and hippocampus; assay type: in vivo, mouse; conditions: for decrease in plaque load, cortex / decrease in plaque load, hippocampus: acute i.c.v.
Description: (§1) Heterozygous mutant (K670N/M671L) APP (50% C57B6, 50% SJL) transgenic mice were crossed with heterozygous mutant (A246E) PS-1 (50% C57B6, 50% SJL) transgenic mice to generate heterozygous PSAPP transgenic mice (also referred to as PS-1/APP or PSAPP+/+ mice), which refers to animals heterozygous for the PS-1 A246E transgene and the APP K670N/M671L transgene. Non-transgenic control animals were littermates (also referred to as PSAPP_−/− mice) generated in the breeding for PSAPP transgenic animals. Mouse genotype was determined by Polymerase Chain Reaction (PCR). Both male and female mice of 6-7 months old were used for the experiments below. All animal experiments were performed in accordance with the Tufts Animal Care and Use Committee and with national regulations and policies.
Mice were perfused transcardially with 4% paraformaldehyde and 40 μm Coronal sections were collected. Sections were sequentially incubated in 0.3% H2O2 for 10 minutes, blocking solution for 2 hrs, blocking solution containing the primary antibody (rabbit anti-beta1-42; rabbit anti-beta1-40, from Chemicon International and rat anti-CD45) for 48 hours at 4° C., and blocking solution containing biotinylated antibody or fluorescently-labeled antibody for 2 hours at room temperature. Sections were visualized in a bright field microscope or a confocal microscope, and the optical density was obtained using MetaMorph software.
After repeated imaging, brains were fixed and subjected to postmortem immunohistochemistry with amyloid beta specific antibodies β1-40 and β1-42 to evaluate the plaque load (area occupied by immunostaining of plaque) in cortex and hippocampus.
PSB0474 was systemically administered to PSAPP mice via intraperitoneal injection for 2, 4 and 6 consecutive days. In one group, prior to evaluation and following to administration for 6 consecutive days, treatment was suspended for two weeks (6+2 weeks group). Brains were then fixed and plaque load was evaluated by immunostaining with the amyloid beta specific antibodies: β1-40 and β1-42. Representative images of plaque load in cortex and hippocampus from animals that received injections of PSB0474 according to the foregoing injection schedules are shown in FIG. 5(A)-(D). […] Whereas, when administration of PSB0474 was stopped for 2 weeks following six consecutive days of treatment (denoted as the 6+2 weeks group), β1-40 staining rebounded; although to a level lower than observed in mice treated with saline as a vehicle control. FIGS. 6A and 6B depict the reduction in plaque load (%) the cortex and hippocampus, respectively, in PSAPP mice after treatment with 3-phenacyl-UDP for 2, 4, or 6 consecutive days, as assayed by staining with the β1-40 antibody. FIGS. 6C-6F depict data obtained following administration of different dosages of PSB0474.
To generate these graphs showing plaque load, mice were euthanized, brain sections cut and antibodies directed against Aβ 42 were used to disclose Aβ plaques. Images were acquired digitally and an algorithm was applied to threshold the image so that plaques were isolated from the background. The algorithm then calculated the percent area of the field of view occupied by the plaques.

[2] = molecular target: T1, P2Y6 receptor (Homo sapiens, UniProt Q15077); conditions: cited from earlier work
T1 sequence (Q15077 whole entry): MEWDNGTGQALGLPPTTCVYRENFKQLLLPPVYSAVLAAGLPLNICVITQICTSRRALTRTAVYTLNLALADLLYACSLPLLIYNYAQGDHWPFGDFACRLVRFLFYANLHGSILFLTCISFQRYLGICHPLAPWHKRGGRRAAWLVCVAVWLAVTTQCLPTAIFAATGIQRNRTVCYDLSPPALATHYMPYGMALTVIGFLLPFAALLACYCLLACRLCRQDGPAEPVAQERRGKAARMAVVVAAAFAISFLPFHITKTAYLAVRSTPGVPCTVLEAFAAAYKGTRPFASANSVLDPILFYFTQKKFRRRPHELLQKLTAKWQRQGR

[3] = test system: PSAPP mice; assay: Contextual fear conditioning test; assay type: in vivo, mouse
Description: as §1
On day one, animals were trained in a fear conditioning apparatus for a total of 7 minutes with a two-pairing paradigm of cue and mild foot shock (a 30-s acoustic-conditioned stimulus, 80 dB; a 2-s shock stimulus, 0.5 mA). To evaluate contextual fear learning, the animals were returned to the training context 24 hours post-training, and freezing behavior was scored for 5 minutes. Freezing behavior was monitored by MotorMonitor (Hamilton Kinder) and scored every 5 seconds.
In this study, the fear conditioning associative learning paradigm was used as a rapid cognition assay for PSAPP mice. This study allowed us to probe cognitive function with a single training day followed in 24 hours by tests for contextual and cued fear learning. Contextual fear learning is dependent upon a brain area that has been implicated as a locus for cognitive decline in AD: the hippocampus. Two pairings of CS-US for fear conditioning were followed 24 hours later by testing for contextual and cued fear learning. Previous studies have reported that PSAPP animals appear to have a selective hippocampus-dependent impairment in associative learning following two pairings of conditioned stimuli for fear conditioning.
This represents a decrease in the cognitive impairment observed in the untreated mice.

[4] = test system: PSAPP mice; assay: Tolerability of increased dose in PSAPP mice; assay type: in vivo, mouse; conditions: 1000× increase in dose
[5] = test system: plasma cytokines; assay: Plasma cytokine levels after 7 daily i.p. injections; assay type: in vivo, mouse; conditions: 1 μg/kg i.p., 7 days
Procedure: Inflammatory cytokines were assessed in mouse plasma of both wild type and PS1/APP mice (Alzheimer's mouse model) and the impact of intraperitoneal delivery of compound 5 on circulating cytokines was assessed. Seven daily intraperitoneal injections of 1 μg/kg of compound 5 were delivered to mice. 24 hours following the final injection, plasma was collected. Wildtype, age matched littermates and PSAPP mice (>6 months of age) were treated either with vehicle (phosphate buffered saline) or vehicle containing compound.

[6] = test system: PSAPP mice; assay: Hippocampal long-term potentiation (LTP) recording; assay type: in vivo, mouse; conditions: acute treatment, HFS
Procedure: Hippocampal slices (350 μm thick) were prepared from 6-month-old PSAPP mice. Baseline responses were obtained every 10 seconds and Input-output (I/O) curves, paired-pulse modification and LTP were successively measured. The stimulation intensity was set to a level that gives a value of 30% of the maximum obtained. LTP were induced by high frequency stimulation (HFS, 100 pulses at 100 Hz, four times) or by theta-burst stimulation (TBS, 10 bursts at 5 Hz, repeated 10 times in 15 s intervals).
Accumulated evidence has shown that amyloid peptides naturally secreted or isolated from Alzheimer's brains impair synaptic plasticity, especially hippocampal long-term potentiation (Walsh et al., 2002). Therefore, we further performed LTP recordings in PASPP mice and investigated whether P2Y6 receptor-mediated plaque clearance affects synaptic plasticity. […] First, it was observed that LTP at the schaffer collateral synapse within the CA1 region was depressed in PSAPP mice, as compared with littermates (FIG. 8(A)).

[7] = test system: amyloid plaques in PSAPP mice; assay: Two-photon in vivo imaging of methoxyX04-labeled amyloid plaques in barrel cortex; parameters: species or system mouse; conditions: acute i.c.v. injection
Description: as §1
In this study, PSAPP mice were anesthetized using isoflurane and a thin-skull preparation was used to minimize the surface damage. Amyloid plaques were visualized with methoxyX04 labeling and blood plasma was labeled with Rhodamine dextran to facilitate re-localization of the same imaging area. Stack images were obtained using a two-photon system (Prairie Technologies) with excitation at 850 nm. The emission was detected by external photomultiplier tubes (525/70; DLCP 575; 607/45 nm).
Animals were anesthetized and immobilized in a stereotaxic frame. For each injection, 1 μl of 10 mM UDP or other suitable compounds in artificial cerebrospinalfluid (ACSF) as the vehicle were injected intraventricularly using the following coordinates: AP 0.2 mm, ML 1 mm, and DV 2.2 mm.
To evaluate the effect of UDP on plaque burden, two-photon microscopy was used to assess the amyloid plaques in the barrel cortex in living PSAPP mice. Amyloid plaques were stained by systemically administered methoxy-X04. One day prior to imaging, PSAPP mice were injected with methoxyX04 to label the amyloid plaques. On the imaging day, to facilitate the re-location of the same imaging area, blood plasma was labeled with Rhodamine dextran. Images were obtained from the same start- and end-point to ensure the same image volume. […]

[8] = molecular target: T1, P2Y6 receptor; assay: Activation of P2Y6 receptor: Ca2+ changes with fluo-4 in 1321N1 astrocytoma cells expressing P2Y6; assay type: cell-based; parameters: expressed in transfected cells; host or cells: 1321N1 human astrocytoma cells
Procedure: Synthetic ligands were tested for activation of P2Y6 receptor by measuring receptor induced Ca^2+ changes with the fluorescent Ca^2+ indicator fluo-4. 1321N1 human astrocytoma cell lines either expressing P2Y2, P2Y4 or P2Y6 receptors were plated into 24-well plates. Two days after plating, fluorometric measurements were made and responses of cells to a serial dilution of ligands were determined. P2Y6 receptor-mediated Ca^2+ fluorescent change was determined by normalized accumulation of fluorescent change of 3 timepoints after ligand administration subtracted by value from ACSF control. Changes in fluorescent intensity were plotted corresponding to ligand concentration in GraphPad. Dose-response curve and EC50 for each ligand was estimated using nonlinear curve fit and Sigmoidal dose-response analysis. […] The sodium salt of compound 5 was only effective at elevating Ca^2+ levels when applied to cells expressing P2Y6 receptors and not effective in P2Y2, or P2Y4 receptor expressing cells. The ability of the sodium salt of compound 5 to elevate Ca^2+ signals in P2Y6 expressing cells was attenuated by addition of the P2Y6 receptor antagonist MRS2578.
(§2) Synthetic ligands were tested for activation of P2Y6 receptor by measuring receptor induced Ca^2+ changes with the fluorescent Ca^2+ indicator fluo-4, and results are shown in FIG. 10(A)-(K). 1321N1 human astrocytoma cell lines either expressing P2Y2, P2Y4 or P2Y6 receptors were plated into 24-well plates. Two days after plating, fluorometric measurements were made and responses of cells to a serial dilution of ligands were determined. P2Y6 receptor-mediated Ca^2+ fluorescent change was determined by normalized accumulation of fluorescent change of 3 timepoints after ligand administration subtracted by value from ACSF control. Changes in fluorescent intensity were plotted corresponding to ligand concentration in GraphPad. Dose-response curve and EC50 for each ligand was estimated using nonlinear curve fit and Sigmoidal dose-response analysis. […]

[9] = molecular target: T2, P2Y2 receptor (Homo sapiens, UniProt P41231); assay: Ca2+ mobilization with fluo-4 in 1321N1 astrocytoma cells expressing P2Y2; assay type: cell-based; conditions: 1321N1 cells expressing P2Y2
T2 construct: expressed in transfected cells; host or cells: 1321N1 human astrocytoma cells
T2 sequence (P41231 whole entry): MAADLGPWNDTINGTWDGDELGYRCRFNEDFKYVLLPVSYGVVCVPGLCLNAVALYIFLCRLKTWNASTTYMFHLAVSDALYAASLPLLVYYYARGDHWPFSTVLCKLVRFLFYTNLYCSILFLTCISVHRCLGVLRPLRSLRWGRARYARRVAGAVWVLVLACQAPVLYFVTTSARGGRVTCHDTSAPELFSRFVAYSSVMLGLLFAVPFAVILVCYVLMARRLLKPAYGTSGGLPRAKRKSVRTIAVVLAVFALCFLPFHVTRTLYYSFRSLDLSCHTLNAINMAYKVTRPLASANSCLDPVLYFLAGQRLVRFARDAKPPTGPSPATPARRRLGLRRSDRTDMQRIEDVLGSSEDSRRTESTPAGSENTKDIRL
Procedure: as §2, with “fluo-4.” for “fluo-4, and results are shown in FIG. 10(A)-(K).”
(§3) Synthetic ligands were tested for activation of P2Y6 receptor by measuring receptor induced Ca^2+ changes with the fluorescent Ca^2+ indicator fluo-4, and results are shown in FIG. 10(A)-(K). […] Two days after plating, fluorometric measurements were made and responses of cells to a serial dilution of ligands were determined. P2Y6 receptor-mediated Ca^2+ fluorescent change was determined by normalized accumulation of fluorescent change of 3 timepoints after ligand administration subtracted by value from ACSF control. […]

[10] = molecular target: T3, P2Y4 receptor (Homo sapiens, UniProt P51582); assay: Ca2+ mobilization with fluo-4 in 1321N1 astrocytoma cells expressing P2Y4; assay type: cell-based; conditions: 1321N1 cells expressing P2Y4
T3 construct: expressed in transfected cells; host or cells: 1321N1 human astrocytoma cells
T3 sequence (P51582 whole entry): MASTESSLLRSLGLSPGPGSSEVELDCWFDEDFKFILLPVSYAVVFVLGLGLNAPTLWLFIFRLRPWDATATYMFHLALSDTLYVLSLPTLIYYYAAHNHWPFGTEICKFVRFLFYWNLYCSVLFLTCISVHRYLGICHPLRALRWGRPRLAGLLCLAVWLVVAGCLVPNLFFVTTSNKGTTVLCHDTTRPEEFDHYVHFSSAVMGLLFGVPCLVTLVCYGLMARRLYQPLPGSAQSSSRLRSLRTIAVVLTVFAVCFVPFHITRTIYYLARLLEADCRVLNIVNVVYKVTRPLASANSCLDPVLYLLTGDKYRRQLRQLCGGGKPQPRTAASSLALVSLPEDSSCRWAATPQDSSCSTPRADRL
Procedure: as §2, with “fluo-4.” for “fluo-4, and results are shown in FIG. 10(A)-(K).”
as §3

[11] = β1-42 antibody, vs vehicle control
[12] = i.p. daily for 7 consecutive days

In the case of `O=C(Cn1c(=O)ccn(C2OC(COP(=O)(O)OP(=O)(O)O)C(O)C2O)c1=O)c1ccccc1` (centres unmarked) [3-phenacyl-UDP], the “effects on the efficacy endpoint at the higher dose” value ([1]; 1 mg/kg) is reported as “smaller effects”, the “β1-40 staining after stopping administration” value ([1]; 6 consecutive days i.p., then stopped for 2 weeks) is reported as “rebounded” and the “immunoreactivity of β1-40 in cortex and hippocampus” value ([1]; i.p. for 4 and 6 consecutive days) is reported as “significantly decreased”. For the same compound, the “selectivity for P2Y6 receptor” value [2] was > 500 fold, the EC50 ([2]; read-out: EC50, P2Y6 receptor agonist) was 70 nM and the “total freezing percentage in context test” value ([3]; chronic injection, two doses) was “increased”. The “memory deficit in contextual fear conditioning test” value ([3]; one week treatment with 1 μg/kg) was “rescued the memory deficit” and the “detrimental effects to the animal” value [4] was “did not cause detrimental effects”.
In the case of `O=c1ccn([C@@H]2O[C@H](COP(=O)(O)OP(=O)(O)O)[C@H](O)C2O)c(=O)n1Cc1noc2ccccc12` (some centres unmarked) [Compound 5], the “plasma level of IL-2” value ([5]; PSAPP mice) is reported as “reduced”, the “plasma level of IL-7” value ([5]; PSAPP mice) is reported as “reduced” and the “plasma level of IL-9” value ([5]; PSAPP mice) is reported as “reduced”. The “plasma level of IL-10” value ([5]; PSAPP mice) was “reduced”, the “plasma level of IL-15” value ([5]; PSAPP mice) was “reduced” and the “plasma level of Il-1β” value ([5]; PSAPP mice) was “reduced”. The “plasma level of MIG” value ([5]; PSAPP mice) was “reduced”, the “plasma level of MIP1α” value ([5]; PSAPP mice) was “reduced” and the “plasma level of IL-2” value ([5]; wildtype animals) was “reduced”. For the same compound, the “plasma level of IL-10” value ([5]; wildtype animals) was “reduced”, the “Aβ plaque load (%) in the cortex” value [1, 11] was “substantial decrease” and the “Aβ plaque load (%) in the hippocampus” value [1, 11] was “substantial decrease”. For the same compound, the “freezing behavior relative to wildtype animals” value [3, 12] was “restored to a level equivalent to that observed in wildtype animals” and the “total freezing percentage in the context test” value [3, 12] was “increased”.
With `O=c1ccn([C@@H]2O[C@H](COP(=O)(O)OP(=O)(O)O)[C@@H](O)[C@H]2O)c(=O)[nH]1` [UDP, uridine diphosphate] the “decrease in plaque load, cortex” value ([1]; β1-40 antibody) was 60%, the “decrease in plaque load, hippocampus” value ([1]; β1-40 antibody) was 62% and the “decrease in plaque load, cortex” value ([1]; β1-42 antibody) was 48%. For the same compound, the “decrease in plaque load, hippocampus” value ([1]; β1-42 antibody) was 47%, the “LTP deficit at CA1” value [6] was “reversed this LTP deficit” and the “field excitatory postsynaptic potential (fEPSP), last 15 min potentiation” value [6] was “significant increase”. The “reduction in plaque load” value ([7]; day 4 vs day 1, barrel cortex) was 17.2%, the “reduction in the number of plaques” value ([7]; day 4 vs day 1, barrel cortex) was 12.6% and the “reduction in cross-sectional area of individual identified plaques” value ([7]; second imaging session) was 18.2%. For the same compound, the “freezing behavior during the first 4 minutes” value ([3]; acute i.c.v., 5 minute testing time) was “increased” and the total freezing percentage ([3]; acute i.c.v., contextual test) was 49%±5%.
In the case of `O=c1ccn(C2OC(COP(=O)(O)OP(=O)(O)O)[C@H](O)C2O)c(=O)n1Cc1noc2ccccc12` (some centres unmarked) [sodium salt of compound 5], the “elevating Ca2+ levels in cells expressing P2Y6 receptors” value ([8]; 1321N1 cells expressing P2Y6) is reported as “effective”, the EC50 ([8]; 1321N1 cells expressing P2Y6, fluo-4 Ca2+) is reported as 12 nM and the “ability to elevate Ca2+ signals on addition of P2Y6 receptor antagonist MRS2578” value ([8]; P2Y6 expressing cells, plus MRS2578) is reported as “attenuated”. For the same compound, the “elevating Ca2+ levels in P2Y2 receptor expressing cells” value [9] was “not effective” and the “elevating Ca2+ levels in P2Y4 receptor expressing cells” value [10] was “not effective”.
